The numbers were not newly measured in patent publication US11081240B2, “Methods for treatment of hypertension with an angiotensin II receptor blocker pharmaceutical composition” (AstraZeneca UK Limited, priority 2018, dated 2021), which cites them from elsewhere.

For data set [1] the following is noted: treatment of hypertension; at least 5 double-blind, placebo-controlled, randomized studies.
For data set [2] the following is noted: co-administration of a potassium supplement with a single oral dose.
The conditions of data set [3]: administered with a lithium medication.

Structures are written as SMILES.

As for `CCOc1nc2cccc(C(=O)OCc3oc(=O)oc3C)c2n1Cc1ccc(-c2ccccc2-c2noc(=O)[nH]2)cc1` [azilsartan medoxomil], the “efficacy to lower blood pressure” value in data set [1] was “has been demonstrated”. The “effect of a potassium supplement on the pharmacokinetics of the drug” value in data set [2] is given as “no significant effect”. Further, the “serum lithium concentrations / lithium toxicity on co-administration” value in data set [3] was “increases in the serum lithium concentrations and/or lithium toxicity have been observed”.
